Assay results as given in PubChem BioAssay AID2060502 (Molecular Pharmacology Branch, DTP, NCI, 2025).

System: 885724-159-R-J1-PDC complex spheroid viability
Test: Anticancer human tumor 885724-159-R-J1-PDC patient-derived pancreatic adenocarcinoma cell line growth inhibition [GQUAD]
Details: for IC50: curve of first compound; for viability, T/C: stronger effect = lower value; active = viability on the fitted dose curve at most 10% of control; inactive = the rest
Summary of the method: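 Multi-cell-type spheroids of tumor cells with HUVEC and mesenchymal stem cells, treated with drug combinations. Concentrations descend in half-log steps from near clinical Cmax, or from 10 microM where Cmax is unknown; viability read-out.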

[1] = second compound 0.0316 µM, first compound 0.0316 µM
[2] = second compound 0.0316 µM, first compound 0.1 µM
[3] = second compound 0.0316 µM, first compound 0.316 µM
[4] = second compound 0.0316 µM, first compound 1 µM
[5] = second compound 0.0316 µM, first compound 3.16 µM
[6] = second compound 0.0316 µM, first compound 10 µM
[7] = second compound 0.1 µM, first compound 0.0316 µM
[8] = second compound 0.1 µM, first compound 0.1 µM
[9] = second compound 0.1 µM, first compound 0.316 µM
[10] = second compound 0.1 µM, first compound 1 µM
[11] = second compound 0.1 µM, first compound 3.16 µM
[12] = second compound 0.1 µM, first compound 10 µM
[13] = second compound 0.316 µM, first compound 0.0316 µM
[14] = second compound 0.316 µM, first compound 0.1 µM
[15] = second compound 0.316 µM, first compound 0.316 µM
[16] = second compound 0.316 µM, first compound 1 µM
[17] = second compound 0.316 µM, first compound 3.16 µM
[18] = second compound 0.316 µM, first compound 10 µM
[19] = second compound 1 µM, first compound 0.0316 µM
[20] = second compound 1 µM, first compound 0.1 µM
[21] = second compound 1 µM, first compound 0.316 µM
[22] = second compound 1 µM, first compound 1 µM
[23] = second compound 1 µM, first compound 3.16 µM
[24] = second compound 1 µM, first compound 10 µM
[25] = second compound 3.16 µM, first compound 0.0316 µM
[26] = second compound 3.16 µM, first compound 0.1 µM
[27] = second compound 3.16 µM, first compound 0.316 µM
[28] = second compound 3.16 µM, first compound 1 µM
[29] = second compound 3.16 µM, first compound 3.16 µM
[30] = second compound 3.16 µM, first compound 10 µM
[31] = second compound 10 µM, first compound 0.0316 µM
[32] = second compound 10 µM, first compound 0.1 µM
[33] = second compound 10 µM, first compound 0.316 µM
[34] = second compound 10 µM, first compound 1 µM
[35] = second compound 10 µM, first compound 3.16 µM
[36] = second compound 10 µM, first compound 10 µM
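Also: spheroids exposed to agents for seven days before readout.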
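For viability, T/C in this document: percent of vehicle control viability where 100% = DMSO wells.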

Nc1ccn(C2OC(CO)C(O)C2(F)F)c(=O)n1 (centres undefined) + Cc1cnc(CNC(=O)c2c(=O)c3ccc(N4CCCN(C)CC4)nc3n3c2sc2ccccc23)cn1
> 10 µM: IC50 (second compound 0.0316 µM) | IC50 (second compound 0.1 µM) | IC50 (second compound 0.316 µM) | IC50 (second compound 1 µM) | IC50 (second compound 3.16 µM) | IC50 (second compound 10 µM)
inactive: viability, T/C [1] 105% | viability, T/C [2] 104% | viability, T/C [3] 82% | viability, T/C [4] 98.1% | viability, T/C [5] 74.9% | viability, T/C [6] 70.3% | viability, T/C [7] 96.8% | viability, T/C [8] 113% | viability, T/C [9] 82.9% | viability, T/C [10] 82.4% | viability, T/C [11] 81.5% | viability, T/C [12] 84.4% | viability, T/C [13] 97% | viability, T/C [14] 97.9% | viability, T/C [15] 88.6% | viability, T/C [16] 78.3% | viability, T/C [17] 89.9% | viability, T/C [18] 78.8% | viability, T/C [19] 85.5% | viability, T/C [20] 87.4% | viability, T/C [21] 80.2% | viability, T/C [22] 77% | viability, T/C [23] 69.2% | viability, T/C [24] 70.6% | viability, T/C [25] 75% | viability, T/C [26] 76.3% | viability, T/C [27] 78% | viability, T/C [28] 62.9% | viability, T/C [29] 70.9% | viability, T/C [30] 68.4% | viability, T/C [31] 72.4% | viability, T/C [32] 75.1% | viability, T/C [33] 71.4% | viability, T/C [34] 69.2% | viability, T/C [35] 70.9% | viability, T/C [36] 74.8%

Cc1cccc(N(C)C(=O)C2C(O)CCN2c2nc(C)cc(C(F)(F)F)c2C#N)c1 (centres undefined) + CN(C)c1ccc(Nc2c3ccc(NC(=O)CCN4CCCC4)cc3nc3cc(NC(=O)CCN4CCCC4)ccc23)cc1
> 10 µM: IC50 (second compound 0.0316 µM) | IC50 (second compound 0.1 µM) | IC50 (second compound 0.316 µM) | IC50 (second compound 1 µM) | IC50 (second compound 3.16 µM) | IC50 (second compound 10 µM)
inactive: viability, T/C [1] 95.6% | viability, T/C [2] 98% | viability, T/C [3] 105% | viability, T/C [4] 92.7% | viability, T/C [5] 108% | viability, T/C [6] 97.7% | viability, T/C [7] 90.3% | viability, T/C [8] 103% | viability, T/C [9] 104% | viability, T/C [10] 90.4% | viability, T/C [11] 90% | viability, T/C [12] 101% | viability, T/C [13] 108% | viability, T/C [14] 86.2% | viability, T/C [15] 88.3% | viability, T/C [16] 87.1% | viability, T/C [17] 100% | viability, T/C [18] 102% | viability, T/C [19] 86% | viability, T/C [20] 80.5% | viability, T/C [21] 83.3% | viability, T/C [22] 82.4% | viability, T/C [23] 89.7% | viability, T/C [24] 83% | viability, T/C [25] 79.8% | viability, T/C [26] 68.8% | viability, T/C [27] 92.3% | viability, T/C [28] 81% | viability, T/C [29] 86.1% | viability, T/C [30] 86.5% | viability, T/C [31] 77% | viability, T/C [32] 79.3% | viability, T/C [33] 75.6% | viability, T/C [34] 80.2% | viability, T/C [35] 78.2% | viability, T/C [36] 56.5%
